Results as given in publication PMC6212833 (mBio, 2018).
Structures can show the parent of a compound that is named as a salt. Where two headings read alike, the source gives them in different places.

Experiments:
[1] = test system: B. mandrillaris trophozoites; assay: Nitroxoline structure-activity relationship dose response (CellTiter Glo); type: cell-based, Balamuthia mandrillaris; conditions: for IC50: 72 h; for activity against B. mandrillaris: SAR experiments
[2] = test system: B. mandrillaris trophozoites; assay: microbe, parasite or virus in culture; type: cell-based, Balamuthia mandrillaris; conditions: for inhibition at 20 µM: Balamuthia mandrillaris; for % Inhibition: 20 µM
[3] = test system: HFF-1 human fibroblast cells; assay: Secondary screening dose response, toxicity to HFF-1 cells; type: cell-based; conditions: 72 h, approximated from dose-response curves, read-out: HFF1 IC50
Method: (§1) Secondary screening of hit compounds consisted of dose-response experiments to measure the toxicity of each compound to B. mandrillaris trophozoites, HFF-1 human fibroblast cells, and H4 human neuroglioma cells. Four 384-well plates were prepared prior to addition of drug as follows: one opaque plate (Corning) seeded with 3,000 HFF-1 cells per well in 60 µl complete media, one opaque plate seeded with 2,000 H4 cells per well in 60 µl complete media, one opaque plate containing 30 µl axenic media, and one clear plate (Corning) containing 30 µl axenic media. Opaque plates were used to measure the viability of trophozoites in the CTG assay, and clear plates were used for microscopic examination of cyst formation. HFF-1 and H4 plates were seeded 24 h prior to drug addition. The selected primary screen hits were added from 10 mM DMSO stocks into wells of all four test plates to reach final concentrations ranging from 0.06 µM to 30 µM (10 concentrations, 2-fold serial dilution). Negative-control wells received concentrations of DMSO corresponding to the amount of DMSO in each tested drug well (reaching a maximum of 0.3% DMSO). B. mandrillaris trophozoites were resuspended in axenic media and added to the plates containing drug dilutions in axenic media at a density of 3,000 amoebae per well in a final volume of 60 µl media. All plates were incubated for 72 h. Throughout the incubation period, the clear-bottom B. mandrillaris plate was monitored for large-scale changes to population encystment in response to drug treatment. After the 72-h incubation, 30 µl of CTG reagent was added to all wells of the opaque assay plates and luminescence was measured with a Promega GloMax-Multi+ plate reader at 2, 4, and 8 h after CTG addition.

[4] = test system: H4 human neuroglioma cells; assay: Secondary screening dose response, toxicity to H4 cells; type: cell-based; conditions: 72 h, approximated from dose-response curves
[5] = test system: B. mandrillaris trophozoites; assay: Secondary screening dose response, B. mandrillaris trophozoites; type: cell-based, Balamuthia mandrillaris; conditions: 72 h, read-out: B. mandrillaris IC50
Method: as §1

B. mandrillaris = test system: B. mandrillaris; parameters: method as in PMID 15347743, PMID 23869955, PMID 16579814; conditions: in vitro; cited from earlier work
[6] = 8-point dose response in triplicate, read-out: IC50
[7] = 72 h, relative to positive and negative controls
[8] = Balamuthia mandrillaris, 8-point dose response in triplicate, read-out: IC50
[9] = Balamuthia mandrillaris, 8-point dose response in triplicate

Question: With 6-Nitroquinolone [compound 15] as the compound, how does the IC50 [1, 6] read?
Answer: 189 µM

Question: Which inhibition at 20 µM ([2]; 72 h) does the source give for `C[n+]1c2cc(N)ccc2cc2ccc(N)cc21` [Acriflavinium Hydrochloride] here?
Answer: 33%

Question: Which inhibition at 20 µM ([2]; 72 h) does the source give for `CCCCC(CC)CNC(=N)NC(=N)NCCCCCCNC(=N)NC(=N)NCC(CC)CCCC` (stereo not shown) [Alexidine Hydrochloride] here?
Answer: 79%

Question: With `CC(C)c1c(C(=O)Nc2ccccc2)c(-c2ccccc2)c(-c2ccc(F)cc2)n1CC[C@@H](O)C[C@@H](O)CC(=O)O` [Atorvastatin] as the compound, how does the IC50 ([3]; Homo sapiens, HFF-1) read?
Answer: > 30 µM

Question: And the IC50 ([4]; Homo sapiens)?
Answer: > 30 µM

Question: And the inhibition at 20 µM ([2]; 72 h)?
Answer: 40%

Question: And the IC50 ([5]; Balamuthia mandrillaris)?
Answer: > 30 µM

Question: Which inhibition at 20 µM ([2]; 72 h) does the source give for `CO/N=C(\C(=O)N[C@@H]1C(=O)N2C(C(=O)O)=C(COC(N)=O)CS[C@H]12)c1ccco1` [Cefuroxime Sodium] here?
Answer: 41%

Question: Which IC50 ([3]; Homo sapiens, HFF-1) does the source give for `COCc1c(C(C)C)nc(C(C)C)c(/C=C/[C@@H](O)C[C@@H](O)CC(=O)O)c1-c1ccc(F)cc1` [Cerivastatin, Cerivastatin Na, Cerivastatin] here?
Answer: < 0.06 µM

Question: What about the IC50 ([4]; Homo sapiens) of the same compound?
Answer: 0.2 µM

Question: And the inhibition at 20 µM ([2]; 72 h)?
Answer: 66%

Question: What about the IC50 ([5]; Balamuthia mandrillaris) of the same compound?
Answer: 9 µM

Question: Which inhibition at 20 µM ([2]; 72 h) does the source give for `CCCCCCCCCCCCCCCC[N+](C)(C)C` [Cetrimonium] here?
Answer: 56%

Question: With `[H]/N=C(\N/C(=N/[H])NCCCCCCNC(=N)NC(=N)Nc1ccc(Cl)cc1)Nc1ccc(Cl)cc1` [Chlorhexidine] as the compound, how does the inhibition at 20 µM ([2]; 72 h) read?
Answer: 64%

Question: For `Cc1cc(N)c2ccccc2[n+]1CCCCCCCCCC[n+]1c(C)cc(N)c2ccccc21` [Dequadin], which inhibition at 20 µM ([2]; 72 h) is on record?
Answer: 69%

Question: Which inhibition at 20 µM ([2]; 72 h) does the source give for `Oc1ccc(Cl)cc1Cc1cc(Cl)ccc1O` [Dichlorophene, Dichlorophen, Dichlorophene] here?
Answer: 42%

Question: For `N=C(N)c1ccc(/N=N/Nc2ccc(C(=N)N)cc2)cc1` [Diminazene], which inhibition at 20 µM ([2]; 72 h) is on record?
Answer: 46%

Question: Which inhibition at 20 µM ([2]; 72 h) does the source give for `O=C(O)c1ccccc1-c1c2cc(I)c(=O)c(I)c-2oc2c(I)c(O)c(I)cc12` [Erythrosine Sodium] here?
Answer: 66%

Question: Which “% Inhibition” value [2, 7] does the source give for `C[CH2][Hg][S]c1ccccc1C(=O)O` [Ethylmercurithiosalicylic acid] here?
Answer: 107%

Question: For `Cc1cc(-c2ccc(/N=N/c3ccc4c(S(=O)(=O)O)cc(S(=O)(=O)O)c(N)c4c3O)c(C)c2)ccc1/N=N/c1ccc2c(S(=O)(=O)O)cc(S(=O)(=O)O)c(N)c2c1O` [Evans Blue], which inhibition at 20 µM ([2]; 72 h) is on record?
Answer: 74%

Question: With `C=C1C[C@@H]2[C@H](CC[C@]3(C)C(=O)CC[C@@H]23)[C@@]2(C)C=CC(=O)C=C12` [Exemestane] as the compound, how does the IC50 ([3]; Homo sapiens, HFF-1) read?
Answer: > 30 µM

Question: And the IC50 ([4]; Homo sapiens)?
Answer: > 30 µM

Question: What about the inhibition at 20 µM ([2]; 72 h) of the same compound?
Answer: 47%

Question: And the IC50 ([5]; Balamuthia mandrillaris)?
Answer: > 30 µM

Question: With `CN(C)c1ccc(C(=C2C=CC(=[N+](C)C)C=C2)c2ccc(N(C)C)cc2)cc1` [Gentian Violet] as the compound, how does the inhibition at 20 µM ([2]; 72 h) read?
Answer: 62%

Question: Which inhibition at 20 µM ([2]; 72 h) does the source give for `CC[n+]1c(-c2ccccc2)c2cc(N)ccc2c2ccc(N)cc21` [Homidium Bromide] here?
Answer: 44%

Question: With `NC(=O)NO` [Hydroxyurea] as the compound, how does the “% Inhibition” value [2] read?
Answer: 44%

Question: For `CN(C)CCCN1c2ccccc2CCc2ccccc21` [Imipramine], which IC50 ([3]; Homo sapiens, HFF-1) is on record?
Answer: > 30 µM

Question: What about the IC50 ([4]; Homo sapiens) of the same compound?
Answer: > 30 µM

Question: And the inhibition at 20 µM ([2]; 72 h)?
Answer: 42%

Question: What about the IC50 ([5]; Balamuthia mandrillaris) of the same compound?
Answer: > 30 µM

Question: For `CC#C[C@]1(O)CC[C@H]2[C@@H]3CCC4=CC(=O)CCC4=C3[C@@H](c3ccc(N(C)C)cc3)C[C@@]21C` [Mifepristone], which IC50 ([3]; Homo sapiens, HFF-1) is on record?
Answer: > 30 µM

Question: And the IC50 ([4]; Homo sapiens)?
Answer: > 30 µM

Question: And the inhibition at 20 µM ([2]; 72 h)?
Answer: 43%

Question: And the IC50 ([5]; Balamuthia mandrillaris)?
Answer: > 30 µM

Question: Which inhibition at 20 µM ([2]; 72 h) does the source give for `NC(=O)c1ccc[n+]([C@@H]2O[C@H](COP(=O)([O-])OP(=O)(O)OC[C@H]3O[C@@H](n4cnc5c(N)ncnc54)[C@H](O)[C@@H]3O)[C@@H](O)[C@H]2O)c1` [Nadide] here?
Answer: 87%

Question: Which IC50 ([3]; Homo sapiens, HFF-1) does the source give for `Cc1c(NC(=O)c2cccnc2)c(=O)n(-c2ccccc2)n1C` [Nifenazone] here?
Answer: > 30 µM

Question: And the IC50 ([4]; Homo sapiens)?
Answer: > 30 µM

Question: What about the inhibition at 20 µM ([2]; 72 h) of the same compound?
Answer: 70%

Question: And the IC50 ([5]; Balamuthia mandrillaris)?
Answer: > 30 µM

Question: With `CC(=O)[O][Hg][c]1ccccc1` [Phenylmercuric Acetate] as the compound, how does the “% Inhibition” value [2, 7] read?
Answer: 107%

Question: With `CNC(=C[N+](=O)[O-])NCCSCc1ccc(CN(C)C)o1` [Ranitidine] as the compound, how does the IC50 ([3]; Homo sapiens, HFF-1) read?
Answer: > 30 µM

Question: What about the IC50 ([4]; Homo sapiens) of the same compound?
Answer: > 30 µM

Question: And the inhibition at 20 µM ([2]; 72 h)?
Answer: 68%

Question: What about the IC50 ([5]; Balamuthia mandrillaris) of the same compound?
Answer: > 30 µM

Question: Which IC50 [1, 8] does the source give for `Oc1cccc2cccnc12` [compound 2, 8-Hydroxyquinoline] here?
Answer: 30.5 µM

Question: For `O=[N+]([O-])c1cccc2ncccc12` [compound 3, 5-Nitroquinoline], which IC50 [1, 8] is on record?
Answer: 82.7 µM

Question: For `Oc1ccc(Br)c2cccnc12` [compound 6, 5-Bromo-8-hydroxyquinoline], which IC50 [1, 8] is on record?
Answer: 48.9 µM

Question: For `Cc1ccc(O)c2ncccc12` [compound 7, 5-Methylquinolin-8-ol], which IC50 [1, 8] is on record?
Answer: 19.9 µM

Question: For `O=S(=O)(O)c1ccc(O)c2ncccc12` [compound 13, 8-Hydroxy-5-quinolinesulfonic acid], which IC50 ([1]; 8-point dose response in triplicate, listed as 8-Hydroxy-5-quinolinesulfonic acid [13]) is on record?
Answer: 338 µM

Question: What about the IC50 [1, 9] of the same compound?
Answer: 338 µM

Question: And the “activity against B. mandrillaris” value [1]?
Answer: inactive

Question: For `c1cnc2c(c1)ccc1cccnc12` [compound 14, 1,10-Phenanthroline], which IC50 [1, 9] is on record?
Answer: 15.9 µM

Question: And the “activity against B. mandrillaris” value [1]?
Answer: demonstrated activity against B. mandrillaris

Question: For `[O-][n+]1cccc2cccc(O)c21` [compound 16, 8-Quinolinol N-oxide], which IC50 [1, 6] is on record?
Answer: 165 µM

Question: Which IC50 [1, 6] does the source give for `CCOc1ccc([N+](=O)[O-])c2cccnc12` [compound 17, 8-Ethoxy-5-nitroquinoline] here?
Answer: 434 µM

Question: Which IC50 ([1]; Balamuthia mandrillaris) does the source give for `O=C(O)c1ccc2ccccc2n1` [compound 18, 2-Quinolinecarboxylic acid] here?
Answer: 884 µM

Question: Which IC50 [1, 9] does the source give for `O=[N+]([O-])c1cnc2ccccc2c1O` [compound 19, 3-Nitro-4-quinolinol] here?
Answer: 1320 µM

Question: Which “inhibition of amoebic growth” value (B. mandrillaris) does the source give for `OC(Cn1cncn1)(Cn1cncn1)c1ccc(F)cc1F` [fluconazole] here?
Answer: little to no inhibition

Question: For `Nc1[nH]c(=O)ncc1F` [flucytosine], which “inhibition of amoebic growth” value (B. mandrillaris) is on record?
Answer: little to no inhibition

Question: For `Nc1ccc(S(=O)(=O)Nc2ncccn2)cc1` [sulfadiazine], which “inhibition of amoebic growth” value (B. mandrillaris) is on record?
Answer: little to no inhibition

Question: With `C[C@@H](c1ncncc1F)[C@](O)(Cn1cncn1)c1ccc(F)cc1F` [voriconazole] as the compound, how does the “inhibition of amoebic growth” value (B. mandrillaris) read?
Answer: amoebicidal or amoebistatic activity

Question: For Demecarium Bromide, which “% Inhibition” value [2, 7] is on record?
Answer: 60%

Question: What does the source list for Plicamycin?
Answer: IC50 [3]: < 0.06 µM; IC50 [4]: < 0.06 µM; % Inhibition [2]: 45%; IC50 ([5]; approximated from dose-response curves): > 30 µM
